Laboratory results: the kinase profiling compilation of Christmann-Franck et al. (2016)

Experiments:
GSK3B (human) = GSK3B (human) (UniProt P49841); assay: radiometric filter-binding kinase assay
MAP3K7 (human) = MAP3K7 (human) (UniProt O43318); assay: radiometric filter-binding kinase assay
MAPK8 (human) = MAPK8 (human) (UniProt P45983); assay: radiometric filter-binding kinase assay
FGFR3 (human) = FGFR3 (human) (UniProt P22607); assay: KINOMEscan competition binding; settings: compound 1.0 µM
NEK3 (human) = NEK3 (human) (UniProt P51956); assay: KINOMEscan competition binding; settings: compound 1.0 µM
PLK4 (human) = PLK4 (human) (UniProt O00444); assay: KINOMEscan competition binding; settings: compound 1.0 µM
EPHB2 (human) = EPHB2 (human) (UniProt P29323); assay: KINOMEscan competition binding; settings: compound 1.0 µM
NEK6 (human) = NEK6 (human) (UniProt Q9HC98); assay: KINOMEscan competition binding; settings: compound 1.0 µM
CLK2 (human) = CLK2 (human) (UniProt P49760); assay: KINOMEscan competition binding; settings: compound 1.0 µM
MAP3K2 (human) = MAP3K2 (human) (UniProt Q9Y2U5); assay: KINOMEscan competition binding; settings: compound 1.0 µM
PRKD2 (human) = PRKD2 (human) (UniProt Q9BZL6); assay: KINOMEscan competition binding; settings: compound 1.0 µM
STK32C (human) = STK32C (human) (UniProt Q86UX6); assay: KINOMEscan competition binding; settings: compound 1.0 µM
HIPK3 (human) = HIPK3 (human) (UniProt Q9H422); assay: KINOMEscan competition binding; settings: compound 1.0 µM
MAP2K1 (human) = MAP2K1 (human) (UniProt Q02750); assay: KINOMEscan competition binding; settings: compound 1.0 µM
CSNK1A1 (human) = CSNK1A1 (human) (UniProt P48729); assay: KINOMEscan competition binding; settings: compound 1.0 µM
DCLK3 (human) = DCLK3 (human) (UniProt Q9C098); assay: KINOMEscan competition binding; settings: compound 1.0 µM
BRSK1 (human) = BRSK1 (human) (UniProt Q8TDC3); assay: KINOMEscan competition binding; settings: compound 1.0 µM
MAP3K15 (human) = MAP3K15 (human) (UniProt Q6ZN16); assay: KINOMEscan competition binding; settings: compound 1.0 µM
BRSK2 (human) = BRSK2 (human) (UniProt Q8IWQ3); assay: KINOMEscan competition binding; settings: compound 1.0 µM
PDGFRB (human) = PDGFRB (human) (UniProt P09619); assay: KINOMEscan competition binding; settings: compound 1.0 µM
PRKCE (human) = PRKCE (human) (UniProt Q02156); assay: KINOMEscan competition binding; settings: compound 1.0 µM
ACVRL1 (human) = ACVRL1 (human) (UniProt P37023); assay: KINOMEscan competition binding; settings: compound 1.0 µM
EPHA3 (human) = EPHA3 (human) (UniProt P29320); assay: KINOMEscan competition binding; settings: compound 1.0 µM
RIOK1 (human) = RIOK1 (human) (UniProt Q9BRS2); assay: KINOMEscan competition binding; settings: compound 1.0 µM
VRK2 (human) = VRK2 (human) (UniProt Q86Y07); assay: KINOMEscan competition binding; settings: compound 1.0 µM
GSK3A (human) = GSK3A (human) (UniProt P49840); assay: KINOMEscan competition binding; settings: compound 1.0 µM
RPS6KA1 KD1 (human) = RPS6KA1 KD1 (human) (UniProt Q15418); assay: KINOMEscan competition binding; settings: compound 1.0 µM
[1] = tested on: MET (human), P08581 [Y1235D]; assay: KINOMEscan competition binding; settings: compound 1.0 µM
SRC (human) = SRC (human) (UniProt P12931); assay: KINOMEscan competition binding; settings: compound 1.0 µM
MAP4K5 (human) = MAP4K5 (human) (UniProt Q9Y4K4); assay: KINOMEscan competition binding; settings: compound 1.0 µM
RPS6KA3 KD1 (human) = RPS6KA3 KD1 (human) (UniProt P51812); assay: KINOMEscan competition binding; settings: compound 1.0 µM
ANKK1 (human) = ANKK1 (human) (UniProt Q8NFD2); assay: KINOMEscan competition binding; settings: compound 1.0 µM
[2] = tested on: FLT3 (human), P36888 [N841I]; assay: KINOMEscan competition binding; settings: compound 1.0 µM
MAPK7 (human) = MAPK7 (human) (UniProt Q13164); assay: KINOMEscan competition binding; settings: compound 1.0 µM
RIPK2 (human) = RIPK2 (human) (UniProt O43353); assay: KINOMEscan competition binding; settings: compound 1.0 µM
[3] = target: TYK2 JH1 catalytic (human) (UniProt P29597); assay: KINOMEscan competition binding; settings: compound 1.0 µM
[4] = tested on: KIT (human), P10721 [D816H]; assay: KINOMEscan competition binding; settings: compound 1.0 µM
MAPK4 (human) = MAPK4 (human) (UniProt P31152); assay: KINOMEscan competition binding; settings: compound 1.0 µM
PIK3C2G (human) = PIK3C2G (human) (UniProt O75747); assay: KINOMEscan competition binding; settings: compound 1.0 µM
[5] = tested on: PIK3CA (human), P42336 [M1043I]; assay: KINOMEscan competition binding; settings: compound 1.0 µM
TNIK (human) = TNIK (human) (UniProt Q9UKE5); assay: KINOMEscan competition binding; settings: compound 1.0 µM
PRKG1 (human) = PRKG1 (human) (UniProt Q13976); assay: KINOMEscan competition binding; settings: compound 1.0 µM
KIT (human) = KIT (human) (UniProt P10721)
Sequence of KIT (human) (P10721 whole entry, looked up): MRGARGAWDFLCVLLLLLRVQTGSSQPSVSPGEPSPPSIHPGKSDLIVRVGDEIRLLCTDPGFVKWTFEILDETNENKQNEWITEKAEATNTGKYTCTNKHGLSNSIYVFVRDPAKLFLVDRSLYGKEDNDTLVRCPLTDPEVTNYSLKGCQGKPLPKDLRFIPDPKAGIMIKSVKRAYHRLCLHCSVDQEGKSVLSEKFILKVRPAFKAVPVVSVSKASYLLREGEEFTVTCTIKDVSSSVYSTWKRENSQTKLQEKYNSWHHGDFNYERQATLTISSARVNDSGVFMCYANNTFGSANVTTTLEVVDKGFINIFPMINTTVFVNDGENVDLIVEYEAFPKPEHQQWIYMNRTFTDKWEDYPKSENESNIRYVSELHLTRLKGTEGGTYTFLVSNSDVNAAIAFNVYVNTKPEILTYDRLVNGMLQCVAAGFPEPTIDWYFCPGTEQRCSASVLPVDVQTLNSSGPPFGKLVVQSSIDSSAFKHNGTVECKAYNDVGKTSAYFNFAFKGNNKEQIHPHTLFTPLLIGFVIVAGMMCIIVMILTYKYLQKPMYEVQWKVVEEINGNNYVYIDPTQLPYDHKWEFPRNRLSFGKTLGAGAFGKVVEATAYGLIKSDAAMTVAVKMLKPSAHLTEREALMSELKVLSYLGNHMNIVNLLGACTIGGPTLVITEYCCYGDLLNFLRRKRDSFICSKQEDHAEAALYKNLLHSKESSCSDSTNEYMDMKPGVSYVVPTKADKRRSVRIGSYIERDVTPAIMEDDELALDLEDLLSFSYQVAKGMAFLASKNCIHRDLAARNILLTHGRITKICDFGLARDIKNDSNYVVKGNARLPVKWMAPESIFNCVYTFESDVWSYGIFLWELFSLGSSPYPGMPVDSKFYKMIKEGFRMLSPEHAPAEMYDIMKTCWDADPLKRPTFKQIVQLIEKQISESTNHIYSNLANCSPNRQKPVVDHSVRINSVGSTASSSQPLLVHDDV

Sequence of RIOK1 (human) (Q9BRS2 whole entry, looked up): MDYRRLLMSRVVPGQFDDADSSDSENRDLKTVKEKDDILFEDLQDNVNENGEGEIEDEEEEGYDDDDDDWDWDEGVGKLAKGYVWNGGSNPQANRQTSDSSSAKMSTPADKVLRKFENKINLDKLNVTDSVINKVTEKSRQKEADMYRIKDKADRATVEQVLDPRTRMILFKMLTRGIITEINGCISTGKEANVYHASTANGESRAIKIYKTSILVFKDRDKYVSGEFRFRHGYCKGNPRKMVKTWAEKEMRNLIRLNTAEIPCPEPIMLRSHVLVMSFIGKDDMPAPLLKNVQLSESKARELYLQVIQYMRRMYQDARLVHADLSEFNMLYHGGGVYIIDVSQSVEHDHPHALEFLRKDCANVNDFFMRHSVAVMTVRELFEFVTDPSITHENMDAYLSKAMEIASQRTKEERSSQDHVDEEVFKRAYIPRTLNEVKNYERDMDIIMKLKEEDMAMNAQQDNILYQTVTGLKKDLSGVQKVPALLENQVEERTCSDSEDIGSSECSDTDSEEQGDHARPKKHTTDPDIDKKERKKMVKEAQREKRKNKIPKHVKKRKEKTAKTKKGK
Sequence of DCLK3 (human) (Q9C098 whole entry, looked up): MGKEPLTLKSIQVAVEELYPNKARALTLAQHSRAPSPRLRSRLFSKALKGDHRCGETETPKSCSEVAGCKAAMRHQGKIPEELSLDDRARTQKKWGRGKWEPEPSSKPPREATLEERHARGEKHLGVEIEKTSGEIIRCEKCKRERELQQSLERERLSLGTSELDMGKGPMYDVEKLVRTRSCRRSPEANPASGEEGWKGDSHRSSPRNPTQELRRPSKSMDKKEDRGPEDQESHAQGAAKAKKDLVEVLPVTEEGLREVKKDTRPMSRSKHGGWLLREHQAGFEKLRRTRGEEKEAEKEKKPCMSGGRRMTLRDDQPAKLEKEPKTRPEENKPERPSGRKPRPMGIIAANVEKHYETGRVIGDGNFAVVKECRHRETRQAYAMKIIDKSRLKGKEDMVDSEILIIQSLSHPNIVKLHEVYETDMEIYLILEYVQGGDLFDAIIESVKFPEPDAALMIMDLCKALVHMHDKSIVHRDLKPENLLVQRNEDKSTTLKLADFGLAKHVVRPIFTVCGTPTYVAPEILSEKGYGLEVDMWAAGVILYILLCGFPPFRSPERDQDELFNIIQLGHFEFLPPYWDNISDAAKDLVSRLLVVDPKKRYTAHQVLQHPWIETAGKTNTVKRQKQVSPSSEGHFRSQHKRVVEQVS
Sequence of BRSK2 (human) (Q8IWQ3 whole entry, looked up): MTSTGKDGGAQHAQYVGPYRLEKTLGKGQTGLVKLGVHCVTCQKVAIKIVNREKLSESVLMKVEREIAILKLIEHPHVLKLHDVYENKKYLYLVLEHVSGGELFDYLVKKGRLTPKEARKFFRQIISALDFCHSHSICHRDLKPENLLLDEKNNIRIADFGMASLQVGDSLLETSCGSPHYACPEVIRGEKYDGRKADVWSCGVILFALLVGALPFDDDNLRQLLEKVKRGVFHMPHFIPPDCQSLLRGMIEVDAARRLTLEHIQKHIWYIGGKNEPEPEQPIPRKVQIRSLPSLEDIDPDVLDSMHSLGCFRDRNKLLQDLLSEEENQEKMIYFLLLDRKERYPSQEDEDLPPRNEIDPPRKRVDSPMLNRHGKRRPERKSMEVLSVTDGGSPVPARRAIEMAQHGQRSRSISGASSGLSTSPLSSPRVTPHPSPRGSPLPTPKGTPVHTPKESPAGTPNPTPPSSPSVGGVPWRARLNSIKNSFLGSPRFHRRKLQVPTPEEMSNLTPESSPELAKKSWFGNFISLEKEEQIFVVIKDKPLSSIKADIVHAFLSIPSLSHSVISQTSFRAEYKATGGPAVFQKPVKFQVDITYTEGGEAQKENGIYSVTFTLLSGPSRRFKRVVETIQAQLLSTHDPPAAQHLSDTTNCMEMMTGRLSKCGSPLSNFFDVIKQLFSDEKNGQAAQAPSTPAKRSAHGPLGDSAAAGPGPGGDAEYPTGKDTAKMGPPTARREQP
Sequence of HIPK3 (human) (Q9H422 whole entry, looked up): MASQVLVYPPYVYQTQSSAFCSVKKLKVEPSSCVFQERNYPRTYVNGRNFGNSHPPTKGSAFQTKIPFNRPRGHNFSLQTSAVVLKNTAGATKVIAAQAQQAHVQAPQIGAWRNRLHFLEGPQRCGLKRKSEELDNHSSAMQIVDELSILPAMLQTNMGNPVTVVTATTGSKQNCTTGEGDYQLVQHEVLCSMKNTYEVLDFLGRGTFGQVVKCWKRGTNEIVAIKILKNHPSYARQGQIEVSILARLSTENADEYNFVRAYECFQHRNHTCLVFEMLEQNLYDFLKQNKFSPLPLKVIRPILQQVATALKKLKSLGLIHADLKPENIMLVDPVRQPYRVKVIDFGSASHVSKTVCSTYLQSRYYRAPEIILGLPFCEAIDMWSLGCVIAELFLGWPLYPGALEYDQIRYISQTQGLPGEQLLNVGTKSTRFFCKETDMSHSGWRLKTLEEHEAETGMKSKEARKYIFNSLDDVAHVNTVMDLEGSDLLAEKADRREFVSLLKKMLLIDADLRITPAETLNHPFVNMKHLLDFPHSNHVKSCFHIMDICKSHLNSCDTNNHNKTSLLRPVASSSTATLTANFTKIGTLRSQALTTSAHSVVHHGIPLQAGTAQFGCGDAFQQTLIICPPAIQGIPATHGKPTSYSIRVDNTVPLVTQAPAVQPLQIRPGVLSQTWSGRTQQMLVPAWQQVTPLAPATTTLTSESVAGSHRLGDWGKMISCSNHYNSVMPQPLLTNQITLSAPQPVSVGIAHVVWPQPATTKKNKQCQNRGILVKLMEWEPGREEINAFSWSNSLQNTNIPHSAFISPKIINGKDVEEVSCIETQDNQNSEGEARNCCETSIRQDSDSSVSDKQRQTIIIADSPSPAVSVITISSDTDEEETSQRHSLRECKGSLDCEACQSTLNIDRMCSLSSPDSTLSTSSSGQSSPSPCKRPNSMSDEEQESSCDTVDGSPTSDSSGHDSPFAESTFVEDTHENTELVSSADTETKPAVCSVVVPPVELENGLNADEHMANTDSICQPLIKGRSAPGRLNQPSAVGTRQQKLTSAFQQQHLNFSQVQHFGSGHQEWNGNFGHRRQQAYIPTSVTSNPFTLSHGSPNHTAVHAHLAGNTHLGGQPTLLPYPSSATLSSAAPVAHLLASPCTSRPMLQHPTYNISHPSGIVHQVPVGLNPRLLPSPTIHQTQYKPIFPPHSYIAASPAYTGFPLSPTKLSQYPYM
Sequence of GSK3A (human) (P49840 whole entry, looked up): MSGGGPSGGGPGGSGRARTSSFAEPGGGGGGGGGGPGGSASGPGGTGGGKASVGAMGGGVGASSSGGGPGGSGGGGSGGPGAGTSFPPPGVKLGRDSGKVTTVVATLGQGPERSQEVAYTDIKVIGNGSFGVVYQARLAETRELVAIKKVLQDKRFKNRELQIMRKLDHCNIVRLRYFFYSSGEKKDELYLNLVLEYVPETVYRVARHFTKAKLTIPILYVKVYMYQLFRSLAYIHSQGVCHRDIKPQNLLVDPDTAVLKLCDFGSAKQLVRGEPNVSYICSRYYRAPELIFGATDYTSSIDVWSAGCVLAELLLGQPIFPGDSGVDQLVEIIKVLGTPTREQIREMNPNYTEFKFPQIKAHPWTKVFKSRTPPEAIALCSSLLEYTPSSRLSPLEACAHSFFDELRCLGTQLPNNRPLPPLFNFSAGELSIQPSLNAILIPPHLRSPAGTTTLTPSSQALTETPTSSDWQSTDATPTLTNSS
Sequence of MAP2K1 (human) (Q02750 whole entry, looked up): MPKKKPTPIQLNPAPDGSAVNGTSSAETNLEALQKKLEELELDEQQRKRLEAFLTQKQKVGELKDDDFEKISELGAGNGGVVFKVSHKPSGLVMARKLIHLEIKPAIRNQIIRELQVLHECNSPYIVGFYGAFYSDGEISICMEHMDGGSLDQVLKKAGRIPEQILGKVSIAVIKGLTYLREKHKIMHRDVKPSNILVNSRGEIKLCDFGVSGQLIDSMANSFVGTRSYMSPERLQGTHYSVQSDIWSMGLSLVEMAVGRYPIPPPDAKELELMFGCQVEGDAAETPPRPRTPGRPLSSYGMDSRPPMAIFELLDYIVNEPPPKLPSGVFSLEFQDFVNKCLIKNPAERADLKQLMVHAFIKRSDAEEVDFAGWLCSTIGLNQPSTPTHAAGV
Sequence of KIT (human), P10721 [D816H] (P10721 whole entry D816H, looked up): as the sequence (P10721 whole entry, looked up) above, with D816H counted along it

SMILES: CN(C)C/C=C/C(=O)Nc1cccc(C(=O)Nc2ccc(Nc3nccc(-c4c(-c5ccccc5)nn5ccccc45)n3)cc2)c1
- IC50 (GSK3B (human)): 32 nM
- IC50 (MAP3K7 (human)): 351 nM
- IC50 (MAPK8 (human)): 39 nM
- kinase still bound, per cent of control (FGFR3 (human)): 100%
- kinase still bound, per cent of control (NEK3 (human)): 99%
- kinase still bound, per cent of control (PLK4 (human)): 92%
- kinase still bound, per cent of control (EPHB2 (human)): 67%
- kinase still bound, per cent of control (NEK6 (human)): 100%
- kinase still bound, per cent of control (CLK2 (human)): 90%
- kinase still bound, per cent of control (MAP3K2 (human)): 52%
- kinase still bound, per cent of control (PRKD2 (human)): 15%
- kinase still bound, per cent of control (STK32C (human)): 99%
- kinase still bound, per cent of control (HIPK3 (human)): 100%
- kinase still bound, per cent of control (MAP2K1 (human)): 100%
- kinase still bound, per cent of control (CSNK1A1 (human)): 2%
- kinase still bound, per cent of control (DCLK3 (human)): 86%
- kinase still bound, per cent of control (BRSK1 (human)): 86%
- kinase still bound, per cent of control (MAP3K15 (human)): 47%
- kinase still bound, per cent of control (BRSK2 (human)): 100%
- kinase still bound, per cent of control (PDGFRB (human)): 0.2%
- kinase still bound, per cent of control (PRKCE (human)): 93%
- kinase still bound, per cent of control (ACVRL1 (human)): 22%
- kinase still bound, per cent of control (EPHA3 (human)): 65%
- kinase still bound, per cent of control (RIOK1 (human)): 100%
- kinase still bound, per cent of control (VRK2 (human)): 85%
- kinase still bound, per cent of control (GSK3A (human)): 38%
- kinase still bound, per cent of control (RPS6KA1 KD1 (human)): 100%
- kinase still bound, per cent of control [1]: 59%
- kinase still bound, per cent of control (SRC (human)): 18%
- kinase still bound, per cent of control (MAP4K5 (human)): 27%
- kinase still bound, per cent of control (RPS6KA3 KD1 (human)): 50%
- kinase still bound, per cent of control (ANKK1 (human)): 73%
- kinase still bound, per cent of control [2]: 4%
- kinase still bound, per cent of control (MAPK7 (human)): 100%
- kinase still bound, per cent of control (RIPK2 (human)): 12%
- kinase still bound, per cent of control [3]: 76%
- kinase still bound, per cent of control [4]: 86%
- kinase still bound, per cent of control (MAPK4 (human)): 94%
- kinase still bound, per cent of control (PIK3C2G (human)): 100%
- kinase still bound, per cent of control [5]: 100%
- kinase still bound, per cent of control (TNIK (human)): 27%
- kinase still bound, per cent of control (PRKG1 (human)): 90%
- IC50 (KIT (human)): 1320 nM

SMILES: CN(C)C/C=C/C(=O)Nc1cccc(C(=O)Nc2ccc(Nc3nccc(-c4cccnc4)n3)cc2)c1
- IC50 (GSK3B (human)): 933 nM
- IC50 (MAP3K7 (human)): 833 nM
- IC50 (MAPK8 (human)): 41 nM
- kinase still bound, per cent of control (FGFR3 (human)): 78%
- kinase still bound, per cent of control (NEK3 (human)): 6.8%
- kinase still bound, per cent of control (PLK4 (human)): 52%
- kinase still bound, per cent of control (EPHB2 (human)): 90%
- kinase still bound, per cent of control (NEK6 (human)): 17%
- kinase still bound, per cent of control (CLK2 (human)): 18%
- kinase still bound, per cent of control (MAP3K2 (human)): 100%
- kinase still bound, per cent of control (PRKD2 (human)): 100%
- kinase still bound, per cent of control (STK32C (human)): 98%
- kinase still bound, per cent of control (HIPK3 (human)): 5.7%
- kinase still bound, per cent of control (MAP2K1 (human)): 46%
- kinase still bound, per cent of control (CSNK1A1 (human)): 19%
- kinase still bound, per cent of control (DCLK3 (human)): 100%
- kinase still bound, per cent of control (BRSK1 (human)): 85%
- kinase still bound, per cent of control (MAP3K15 (human)): 88%
- kinase still bound, per cent of control (BRSK2 (human)): 98%
- kinase still bound, per cent of control (PDGFRB (human)): 6%
- kinase still bound, per cent of control (PRKCE (human)): 61%
- kinase still bound, per cent of control (ACVRL1 (human)): 100%
- kinase still bound, per cent of control (EPHA3 (human)): 80%
- kinase still bound, per cent of control (RIOK1 (human)): 15%
- kinase still bound, per cent of control (VRK2 (human)): 98%
- kinase still bound, per cent of control (GSK3A (human)): 65%
- kinase still bound, per cent of control (RPS6KA1 KD1 (human)): 100%
- kinase still bound, per cent of control [1]: 100%
- kinase still bound, per cent of control (SRC (human)): 88%
- kinase still bound, per cent of control (MAP4K5 (human)): 52%
- kinase still bound, per cent of control (RPS6KA3 KD1 (human)): 100%
- kinase still bound, per cent of control (ANKK1 (human)): 50%
- kinase still bound, per cent of control [2]: 18%
- kinase still bound, per cent of control (MAPK7 (human)): 100%
- kinase still bound, per cent of control (RIPK2 (human)): 55%
- kinase still bound, per cent of control [3]: 16%
- kinase still bound, per cent of control [4]: 42%
- kinase still bound, per cent of control (MAPK4 (human)): 11%
- kinase still bound, per cent of control (PIK3C2G (human)): 100%
- kinase still bound, per cent of control [5]: 74%
- kinase still bound, per cent of control (TNIK (human)): 40%
- kinase still bound, per cent of control (PRKG1 (human)): 100%
- IC50 (KIT (human)): 2410 nM
